Read-outs that look alike come from different tables or passages of the source.
Experiments:
[1] = system: influenza A virus (A/PR/8/34); assay: microbe, parasite or virus in culture; assay type: cell-based
[2] = system: A/PR/8/34 influenza virus; assay: microbe, parasite or virus in culture; assay type: cell-based
[3] = Influenza A virus, PR/8, MDCK, MDCK cells infected with A/PR/8/34, survival of infected cells, class symbols, read-out: IC50 (mean all)
[4] = Influenza A virus, PR/8, MDCK, MDCK cells infected with A/PR/8/34, replication of influenza virus (viral RNA, bDNA), class symbols, read-out: EC50 (mean all)
[5] = mean all, MDCK cells infected with A/PR/8/34, cell protection (CPE), read-out: IC50
[6] = mean all, bDNA viral RNA in MDCK cells infected with A/PR/8/34, read-out: EC50
[7] = Influenza A virus, PR/8, MDCK, MDCK cells infected with A/PR/8/34, cell protection (CPE), read-out: IC50 (mean all)
[8] = Influenza A virus, PR/8, MDCK, MDCK cells infected with A/PR/8/34, bDNA viral RNA, read-out: EC50 (mean all)

| SMILES | IC50 [1, 7] [µM] | EC50 [2, 8] [µM] | other results |
| --- | --- | --- | --- |
| COCC(=O)N[C@@H]1CCCC[C@H]1CNc1nc(-c2c[nH]c3ncc(Cl)cc23)ncc1F (relative stereo) [Compound 556, N-(trans-2-((2-(5-chloro-1H-pyrrolo[2,3-b]pyridin-3-yl)-5-fluoropyrimidin-4-ylamino)methyl)cyclohexyl)-2-methoxyethanamide] |  |  | IC50 [1, 3]: > 10 µM; EC50 [2, 4]: < 5 µM |
| O=C(O)[C@@H]1CCC[C@@H]1Nc1nc(-c2c[nH]c3ncc(Cl)cc23)ncc1F (relative stereo) [Compound 558, Cis-2-(2-(5-chloro-1H-pyrrolo[2,3-b]pyridin-3-yl)-5-fluoropyrimidin-4-ylamino)cyclopentanecarboxylic acid] |  |  | IC50 [1, 3]: < 5 µM; EC50 [2, 4]: < 5 µM |
| O=C(O)[C@@H]1CCCC[C@@H]1Nc1nc(-c2c[nH]c3ncc(Cl)cc23)ncc1F (relative stereo) [Compound 559, Cis-2-(2-(5-chloro-1H-pyrrolo[2,3-b]pyridin-3-yl)-5-fluoropyrimidin-4-ylamino)cyclohexanecarboxylic acid] |  |  | IC50 [1, 3]: < 5 µM; EC50 [2, 4]: < 5 µM |
| CN(C)C(=O)N[C@@H]1CCCC[C@H]1CNc1nc(-c2c[nH]c3ncc(Cl)cc23)ncc1F (relative stereo) [Compound 564, 3-(trans-2-((2-(5-chloro-1H-pyrrolo[2,3-b]pyridin-3-yl)-5-fluoropyrimidin-4-ylamino)methyl)cyclohexyl)-1,1-dimethylurea] |  |  | IC50 [1, 3]: > 10 µM; EC50 [2, 4]: < 5 µM |
| CC[C@@]1(C(=O)O)CCCC[C@H]1Nc1nc(-c2c[nH]c3ncc(Cl)cc23)ncc1F (relative stereo) [Compound 586, trans-2-(2-(5-chloro-1H-pyrrolo[2,3-b]pyridin-3-yl)-5-fluoropyrimidin-4-ylamino)-1-ethylcyclohexanecarboxylic acid] |  |  | IC50 ([1]; read-out: IC50 (mean all)): < 5 µM; EC50 ([2]; […], replication of influenza virus (viral RNA, bDNA), class symbols, read-out: EC50 (mean all)): < 5 µM |
| CC1(O)CCCCC1Nc1nc(-c2c[nH]c3ncc(Cl)cc23)ncc1F (single isomer, unassigned) [Compound 563, 2-(2-(5-chloro-1H-pyrrolo[2,3-b]pyridin-3-yl)-5-fluoropyrimidin-4-ylamino)-1-methylcyclohexanol] |  |  | IC50 [1, 3]: < 5 µM; EC50 [2, 4]: < 5 µM |
| CCNC(=O)OC1CCCC(Nc2nc(-c3c[nH]c4ncc(Cl)cc34)ncc2F)C1 (single isomer, unassigned) [Compound 609] |  |  | IC50 ([1]; CPE assay, A/PR/8/34 infected MDCK cells, class symbols, read-out: IC50 (mean all)): < 5 µM; EC50 ([2]; bDNA assay, A/PR/8/34 influenza virus replication in MDCK cells, class symbols, read-out: EC50 (mean all)): < 5 µM |
| CCC1(O)CCCC(Nc2nc(-c3c[nH]c4ncc(Cl)cc34)ncc2F)C1 (single isomer, unassigned) [Compound 709] |  |  | IC50 [1, 5]: < 5 µM; EC50 [2, 6]: < 5 µM |
| CCC1(O)CCCC(Nc2nc(-c3c[nH]c4ncc(Cl)cc34)ncc2F)C1 (single isomer, unassigned) [Compound 710] |  |  | IC50 [1, 5]: < 5 µM; EC50 [2, 6]: < 5 µM |
| CCNC(=O)OC1(C)CCCC(Nc2nc(-c3c[nH]c4ncc(Cl)cc34)ncc2F)C1 (single isomer, unassigned) [Compound 722] |  |  | IC50 [1, 5]: < 5 µM; EC50 [2, 6]: < 5 µM |
| O=C(NC1CC2CC(Nc3nc(-c4c[nH]c5ncc(F)cc45)ncc3F)C1C2)N1CCCC1 (single isomer, unassigned) [Compound 1045, N-[6-[[5-fluoro-2-(5-fluoro-1H-pyrrolo[2,3-b]pyridin-3-yl)pyrimidin-4-yl]amino]norbornan-2-yl]pyrrolidine-1-carboxamide] |  |  | IC50 ([1]; Influenza A virus, PR/8, MDCK, MDCK cells, A/PR/8/34, ATP readout, mean all, read-out: Cell Flu, MDCK protection, ATP (All: IC50: uM)(Mean (All))): < 5 µM; EC50 ([2]; Influenza A virus, PR/8, 30 h, HA(−) 30 hr, A/PR/8, bDNA, mean all, read-out: Cell Influenza HA(−) 30 hr A/PR/8 bDNA:bDNA EC50 uM(Mean (All))): < 5 µM |
| C[C@]1(C(=O)O)CCCC[C@@H]1Nc1nc(-c2c[nH]c3ncc(Cl)cc23)ncc1F (stereo in doubt) [Compound 643, Trans-2-[[2-(5-chloro-1H-pyrrolo[2,3-b]pyridin-3-yl)-5-fluoro-pyrimidin-4-yl]amino]-1-methyl-cyclohexanecarboxylic acid] |  |  | IC50 ([1]; Influenza A virus, PR/8, MDCK, CPE assay, A/PR/8/34 infected MDCK cells, class symbols, read-out: IC50 (mean all)): < 5 µM; EC50 ([2]; Influenza A virus, PR/8, MDCK, bDNA assay, A/PR/8/34 influenza virus replication in MDCK cells, class symbols, read-out: EC50 (mean all)): < 5 µM |
| OC1CCCC1Nc1nc(-c2c[nH]c3ncc(Cl)cc23)ncc1F (stereo not drawn) [Compound 14, 2-(2-(5-chloro-1H-pyrrolo[2,3-b]pyridin-3-yl)-5-fluoropyrimidin-4-ylamino)cyclopentanol] | 5 to 20 | < 5 |  |
| CC(C)(C)OC(=O)N1CCC[C@H](CNc2nc(-c3c[nH]c4ncc(Cl)cc34)ncc2F)C1 [Compound 15, (R)-tert-butyl 3-((2-(5-chloro-1H-pyrrolo[2,3-b]pyridin-3-yl)-5-fluoropyrimidin-4-ylamino)methyl)piperidine-1-carboxylate] | 5 to 20 | < 5 |  |
| C=CCOC(=O)N1CCC[C@@H](CNc2nc(-c3c[nH]c4ncc(Cl)cc34)ncc2F)C1 [Compound 17, (S)-allyl 3-((2-(5-chloro-1H-pyrrolo[2,3-b]pyridin-3-yl)-5-fluoropyrimidin-4-ylamino)methyl)piperidine-1-carboxylate] | 5 to 20 | < 5 |  |
| O=C(Nc1ccsc1)N1CCC[C@@H](CNc2nc(-c3c[nH]c4ncc(Cl)cc34)ncc2F)C1 [Compound 22, (S)-3-((2-(5-chloro-1H-pyrrolo[2,3-b]pyridin-3-yl)-5-fluoropyrimidin-4-ylamino)methyl)-N-(thiophen-3-yl)piperidine-1-carboxamide] | < 5 | < 5 |  |
| COC(=O)N1CCC[C@@H](CNc2nc(-c3c[nH]c4ncc(Cl)cc34)ncc2F)C1 [Compound 23, (S)-methyl 3-((2-(5-chloro-1H-pyrrolo[2,3-b]pyridin-3-yl)-5-fluoropyrimidin-4-ylamino)methyl)piperidine-1-carboxylate] | < 5 | < 5 |  |
| CCOC(=O)CNC(=O)N1CCC[C@@H](CNc2nc(-c3c[nH]c4ncc(Cl)cc34)ncc2F)C1 [Compound 25, (S)-ethyl 2-(3-((2-(5-chloro-1H-pyrrolo[2,3-b]pyridin-3-yl)-5-fluoropyrimidin-4-ylamino)methyl)piperidine-1-carboxamido)ethanoate] | < 5 | < 5 |  |
| CCOC(=O)NC(=O)N1CCC[C@@H](CNc2nc(-c3c[nH]c4ncc(Cl)cc34)ncc2F)C1 [Compound 26, (S)-ethyl 3-((2-(5-chloro-1H-pyrrolo[2,3-b]pyridin-3-yl)-5-fluoropyrimidin-4-ylamino)methyl)piperidine-1-carbonylcarbamate] | < 5 | < 5 |  |
| CC(C)NC(=O)N1CCC[C@@H](CNc2nc(-c3c[nH]c4ncc(Cl)cc34)ncc2F)C1 [Compound 27, (S)-3-((2-(5-chloro-1H-pyrrolo[2,3-b]pyridin-3-yl)-5-fluoropyrimidin-4-ylamino)methyl)-N-isopropylpiperidine-1-carboxamide] | < 5 | < 5 |  |
| CC(C)COC(=O)N1CCC[C@@H](CNc2nc(-c3c[nH]c4ncc(Cl)cc34)ncc2F)C1 [Compound 28, (S)-isobutyl 3-((2-(5-chloro-1H-pyrrolo[2,3-b]pyridin-3-yl)-5-fluoropyrimidin-4-ylamino)methyl)piperidine-1-carboxylate] | > 20 | < 5 |  |
| CC#CCOC(=O)N1CCC[C@@H](CNc2nc(-c3c[nH]c4ncc(Cl)cc34)ncc2F)C1 [Compound 30, (S)-but-2-ynyl 3-((2-(5-chloro-1H-pyrrolo[2,3-b]pyridin-3-yl)-5-fluoropyrimidin-4-ylamino)methyl)piperidine-1-carboxylate] |  |  | IC50 ([1]; Influenza A virus, PR/8, MDCK, read-out: IC50 (mean all)): 5 to 20 µM; EC50 ([2]; Influenza A virus, PR/8, MDCK, read-out: EC50 (mean all)): < 5 µM |
| N[C@@H]1CCCC[C@H]1Nc1nc(-c2c[nH]c3ncc(Cl)cc23)ncc1C(F)(F)F [Compound 31, (1R,2R)—N1-(2-(5-chloro-1H-pyrrolo[2,3-b]pyridin-3-yl)-5-(trifluoromethyl)pyrimidin-4-yl)cyclohexane-1,2-diamine] | < 5 | < 5 |  |
| CCC(=O)N1CCC[C@@H](CNc2nc(-c3c[nH]c4ncc(Cl)cc34)ncc2F)C1 [Compound 32, (S)-1-(3-((2-(5-chloro-1H-pyrrolo[2,3-b]pyridin-3-yl)-5-fluoropyrimidin-4-ylamino)methyl)piperidin-1-yl)propan-1-one] | < 5 | < 5 |  |
| CCOC(=O)N1CCC[C@@H](CNc2nc(-c3c[nH]c4ncc(Cl)cc34)ncc2F)C1 [Compound 33, (S)-ethyl 3-((2-(5-chloro-1H-pyrrolo[2,3-b]pyridin-3-yl)-5-fluoropyrimidin-4-ylamino)methyl)piperidine-1-carboxylate] | < 5 | < 5 |  |
| CS(=O)(=O)N1CCC[C@@H](CNc2nc(-c3c[nH]c4ncc(Cl)cc34)ncc2F)C1 [Compound 36, (S)-2-(5-chloro-1H-pyrrolo[2,3-b]pyridin-3-yl)-5-fluoro-N-((1-(methylsulfonyl)-piperidin-3-yl)methyl)pyrimidin-4-amine] | < 5 | < 5 |  |
| CC(=O)N1CCC[C@@H](CNc2nc(-c3c[nH]c4ncc(Cl)cc34)ncc2F)C1 [Compound 37, (S)-1-(3-((2-(5-chloro-1H-pyrrolo[2,3-b]pyridin-3-yl)-5-fluoropyrimidin-4-ylamino)methyl)piperidin-1-yl)ethanone] | < 5 | < 5 |  |

Reference: patent US8829007B2 (priority 2009, dated 2014)
